Strand notation (5' to 3'): a small letter for the sugar, then the base; units joined by * are phosphorothioate-linked, units joined directly phosphodiester-linked; [ ] holds rarer units or linkages, { } end groups; capitals alone tell only the bases. [TEGam] = internucleoside phosphate triester carrying a triethylene glycol amino linker (free amine, native form); {Y} = hydroxypropyldithiopropyl phosphate linker, HOCH2CH2SSCH2CH2CH2O-P(O)(OH)-; d = 2'-deoxy (DNA)
Assays:
[1] = Storage stability of synthon 2 (coupling efficiency on the synthesizer); assay type: physicochemical; conditions: for coupling yield of the monomer: in anhydrous acetonitrile at room temperature, 3 minutes coupling
Procedure: Usually the compound was dissolved in anhydrous acetonitrile under argon and was kept on the synthesizer for up to two weeks at room temperature. The coupling yield of the monomer for the 3 minutes coupling duration was 98-99% after 7-8 days, and for the same coupling conditions coupling yield decreased to 90% after additional 10-12 days. Coupling yields were assessed using a DMTr detector reading on the synthesizer.

[2] = Storage stability of oligonucleotide conjugate in water (HPLC); assay type: physicochemical; conditions: deionized water, −20° C., approximately four months
Procedure: A limited stability study of one of the novel oligonucleotide conjugates, VIII, which contained 800CW dye at the 8th nucleoside from the 5′-end (see Table 2), was performed.

[3] = Melting temperature of oligonucleotide duplexes (UV, FRET loss or dequenching); assay type: physicochemical; conditions: for Melting point, ° C, method: Table 5, method UV
Procedure: Watson-Crick base paring properties of the modified oligonucleotides were evaluated by comparison of melting temperatures of a duplex formed between the amino-functionalized oligonucleotide CGG AAA GT*C CCT CAT AGC T (I, SEQ ID NO: 1) and its complementary unmodified oligonucleotide 3′[…] 5′ (Duplex 1, SEQ ID NO:5) and a control, unmodified duplex with the same sequence (Duplex 2). The melting temperatures were almost equal, i.e. 65 and 66° C. for Duplexes 1 and 2, respectively.
The conjugates were characterized by HPLC analysis, mass spectrometry and UV/VIS spectroscopy. Briefly, spectral measurements were performed using a Cary 50 Bio UV-visible spectrophotometer. Melting temperatures were determined with a step-wise Peltier temperature ramping bath in 2 degree mode in a temperature-controlled cuvette holder. Electrospray mass spectrometry (MS) was performed with a LTQ Linear Ion trap mass spectrometer (Thermo, Inc) with use of a Nanomate (Advion, Inc.) robot. Spectra were obtained in the negative ion mode with 1.8 kV spray voltage and 0.8 PSI back pressure (UMMS Proteomic and Mass Spectrometry Core Facility, University of Massachusetts Medical School, Worcester, Mass.). Sample solutions were adjusted to 75% methanol before MS analysis. The full mass spectra were acquired for 30 seconds from m/z 400-2000 using 2 ms scans and 10 ms maximum injection time.
The synthesized ODN duplex probes were characterized by comparing melting temperatures of native, non-modified ODN pair to those duplexes prepared by using covalently labeled ODNs.
The FRET between Cy5.5 and the acceptor on complementary ODN was observed after Cy5.5-ODN3 was incubated with Cy7- or 800CW-linked to ODN2 (see FIGS. 20A-B). […] In the presence of internucleoside phosphate-linked Cy7 on the complementary strand it was observed more than 10 times lower fluorescence of Cy5.5 measured at 700 nm (λex=675 nm) and a 3-fold higher fluorescence of Cy7 (if compared to the duplex formed between Cy7-ODN2 and ODN3), FIGS. 20A-D. The formation of duplexes and reversible FRET effects were further studied in more detail by following sigmoidal dependence of the temperature-dependent increase of Cy5.5 fluorescence in a microcuvette of a spectrofluorometer. These experiments enabled measurement of two parameters: melting temperatures and the overall FRET efficacy (Table 5).

[4] = molecular target: T1, NF-κB p50 (Homo sapiens, UniProt P19838); assay: EMSA of recombinant p50 binding to fluorescent duplexes; conditions: both Cy5.5-800CW and Cy5.5-Cy7 donor/acceptor pairs
T1 sequence (P19838 1-433 limits assumed): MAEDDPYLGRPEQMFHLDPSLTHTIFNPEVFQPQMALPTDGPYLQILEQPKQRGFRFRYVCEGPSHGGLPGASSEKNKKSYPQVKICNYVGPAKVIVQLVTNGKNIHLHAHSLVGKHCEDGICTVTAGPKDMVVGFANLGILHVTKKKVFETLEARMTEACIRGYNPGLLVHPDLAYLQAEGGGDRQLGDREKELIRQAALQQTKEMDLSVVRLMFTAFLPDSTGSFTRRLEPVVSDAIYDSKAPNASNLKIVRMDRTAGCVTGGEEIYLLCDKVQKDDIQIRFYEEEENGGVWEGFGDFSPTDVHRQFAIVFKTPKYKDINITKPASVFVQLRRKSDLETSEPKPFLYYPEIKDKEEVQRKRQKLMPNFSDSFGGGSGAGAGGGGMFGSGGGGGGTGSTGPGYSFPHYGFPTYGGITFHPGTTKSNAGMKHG
Excerpt: The binding of NF-κB p50 to duplexes was initially followed by using two methods: 1) electrophoretic mobility shift essay (EMSA) in polyacrylamide gels; 2) fluorescence energy transfer loss measurements after adding p50 to the duplex in solution. In the first case the components of the mixture are off equilibrium since the free duplex is separated due to a faster migration in electric field during the analysis. The second method afforded measurements at the equilibrium but the observed fluorescence change values are affected by the background fluorescence due to the presence of the free duplex. […] Fluorescence of both free and bound duplex could be imaged by using a transillumination scanner and CCD camera that detected emitted light at two wavelengths—[…] (FIG. 21A) and 800 nm (FIG. 21B, fused image—FIG. 21C). […] However, by comparing Cy5.5-labeled duplexes (ODN2/Cy5.5-ODN3 and ODN4/Cy5.5-ODN5) it was determined that in the case of full-length binding sites 94% of fluorescence co-migrated with p50, whereas only 63% co-migrated with ODN4/Cy5.5-ODN5 duplex (FIG. 21D) at the saturating concentrations of p50 monomer (200 nM).
The half-maximal amount of p50 was 238-300 ng (corresponding to approximately 600 nM). […] A similar trend was observed if 800CW dye was used as Cy5.5 fluorescence acceptor and the differences were also significant (p=0.02).

COc1ccc(C(OC[C@H]2O[C@@H](n3cc(C)c(=O)[nH]c3=O)C[C@@H]2OP(OCCOCCOCCNC(=O)C(F)(F)F)N(C(C)C)C(C)C)(c2ccccc2)c2ccc(OC)cc2)cc1 (stereo partly shown) [synthon 2, 5′-O-DMTr-thymidine-3′-O-(2-(2-(2-trifluoroacetamidoethoxy)-ethoxy)ethyl)-N,N-diisopropylphosphoramidite]
stability in dry acetonitrile ([1]; dry acetonitrile, on synthesizer, room temperature): stable in dry acetonitrile for at least one week
coupling yield of the monomer ([1]; after 7-8 days): 98-99%
coupling yield of the monomer ([1]; after additional 10-12 days): 90%
stability of dry monomer on storage ([1]; stored six months at −20° C.): no apparent decrease in coupling efficiency

CGGAAAGT^800CWCCCTCATAGCT [VIII]
stability by HPLC analysis [2]: no signs of degradation

I/XIX: non-labelled duplex of I and XIX (chain 1 dCdGdGdAdAdAdGdT[TEGam]dCdCdCdTdCdAdTdAdGdCdT; chain 2 dAdGdCdTdAdTdGdAdGdGdGdAdCdTdTdTdCdCdG-{Y})
Melting point, ° C., (method) ([3]; Table 3, method UV): 64 (UV) ° C.
Melting point, ° C, method [3]: 64 (UV) ° C

ODN1/ODN3: non-labeled duplex of ODN1 and ODN3 (chain 1 CGGAAAGTCCCTCATAGCT; chain 2 dAdGdCdTdAdTdGdAdGdGdGdAdCdTdTdTdCdCdG-{Y}; chain 1: unmodified DNA) [reference compound]
Melting point, ° C, method [3]: 66 (UV) ° C

ODN4/ODN5: duplex with truncated NF-κB p50 binding site GGAAAG (chain 1 TGGAAAGCTTTTTACAGTT; chain 2 AACTGTAAAAAGCTTTCCA; listed as DNA, chemistry not fully specified)
Melting point, ° C, method [3]: 61 (UV) ° C
fluorescence changes in EMSA bands on p50 binding [4]: no measurably significant fluorescence changes
